Measurements reported in patent publication US20230190870A1, “Method for Treating Lysosomal Storage Diseases with Histatin Peptides” (THE BOARD OF TRUSTEES OF THE UNIVERSITY OF ILLINOIS, priority 2020, published 2023).
Square brackets hold non-standard residues; d marks the D form. Peptide text beside a SMILES is read from it. pS = N[C@@H](COP(=O)(O)O)C(=O)O

Experiments:
[1] = tested on: Human corneal epithelial cells; test: Cell viability of BAK-treated human corneal epithelial cells; type: cell-based; conditions: benzalkonium chloride (BAK) treatment
Text: Apoptosis. […] BAK and hOsm are standard inducers of corneal epithelial and neuronal cell death and toxicity, phenomena which are associated with ocular surface pain and chronic pain syndromes.

[2] = cyclization of histatin-1; cited from earlier work
[3] = tested on: NPC knockout fibroblasts (NPC1−/−); test: Filipin and LAMP1 staining in NPC knockout fibroblasts; type: cell-based, human
Experimental: In addition, cholesterol accumulation in wild type human skin fibroblasts or NPC knockout fibroblasts (NPC1^−/−) were evaluated with or without Hst1 treatment. […] Additionally, LAMP1 lysosomal marker accumulation in untreated NPC1^−/− cells were normalized with Hst1 treatment.

NPC1 KD cells = test: LC3 immunolocalization in NPC1 KD cells (autophagy); type: cell-based; conditions: 20 μM or 50 μM
Text: Autophagy. NPC1-deficiency results in increased autophagy as evidenced by elevated microtubule-associated protein 1 light chain 3 (LC3) levels, numerous autophagic vacuoles and enhanced degradation of long-lived proteins (Pacheco, et al. (2007) Human Mol. Genet. 16(12):1495-1503).

HCE cells = test: Immunofluorescence imaging of internalization and localization; type: cell-based, human
Experimental: Immunofluorescence Imaging. HCE cells were seeded on glass coverslips (Fisher Scientific Co.; Pittsburgh, Pa.) within a 6-well plate at 3×10^5 (cells/well) seeding density. […] HCE cells were then fixed in 3.7% paraformaldehyde, permeabilized with phosphate-buffered saline (PBS) containing 0.2% TRITON™ X-100 for 5 minutes, and washed three times for 5 minutes each time in PBS. For blocking, cells were and incubated at room temperature for 30 minutes with 5% bovine serum albumin (BSA) and 5% normal goat serum in PBS. For the Endoplasmic Reticulum (ER) staining, a Cytopainter ER staining kit (Abcam; Cambridge, Mass.) was used, following the manufacturer's instructions. After washing with 1×Assay buffer, cells were incubated with Green Detection Reagent to cover the monolayer of cells. For the detection of Hst1 and TMEM97, mouse anti-Hst1 antibody (Abcam; Cambridge, Mass.), rabbit primary antibody against Hst1 (Mybiosource; San Diego, Calif.), and rabbit anti-TMEM97 antibody (Novus Bio.; Littleton, Colo.) were used. Cells were incubated overnight at 4° C. with primary antibodies, washed three times for 5 minutes each time in PBS before incubation with secondary antibodies for 30 minutes. Cells were then counterstained with 1 μg/mL 4′,6-diamidino-2-phenylindole (DAPI) solution in PBS for 3 minutes, then washed three times with PBS containing 0.05% TRITON™ X-100 for 5 minutes each time, twice with PBS for 5 minutes each time, and once with distilled water for 10 seconds. The cells were mounted in Fluoro gel with Tris buffer (Electron Microscopy Sciences; Hatfield, Pa.) and observed under a confocal microscope (Zeiss LSM 710 Confocal Microscope; Oberkochen, Germany) using a 40×objective. Fluorescent dye sold under the tradename ALEXA FLUOR® 488 NHS Ester (Molecular Probes; Carlsbad, Calif.) was used for making Alexa-488 coupled synthetic Hst1.
Transfection/Knock-Down of TMEM97. Sub-confluent monolayers of HCE cells in grown in 35-mm six-well plates were transfected with reaction mixtures composed of 100 pmol of small interfering RNA (siRNA) to TMEM97 (Santa Cruz Biotechnology; Dallas, Tex.) for 48 hours and 5 μL of transfection reagent sold under the tradename LIPOFECTAMINE® 2000 (Invitrogen; Carlsbad, Calif.) in culture medium sold under the tradename OPTI-MEMO media (Gibco Life Technologies; Grand Island, N.Y.). Complexes were incubated for 20 minutes at 24° C. and then added to cells at 37° C. Incubation was continued for 24 to 48 hours at 37° C. in 5% CO2. Knock-down (KD) of TMEM97 was confirmed by western blot analysis using a rabbit anti-TMEM97 antibody (Novus Bio.; Littleton, Colo.). […]

GST-TMEM97 (108-176) = target: T1, GST-TMEM97 (108-176) (Homo sapiens, UniProt Q5BJF2); test: Surface plasmon resonance, immobilized GST-TMEM97 (108-176); type: binding; conditions: for % Rmax: SPR
T1 construct: GST-TMEM97 (108-176, recombinant GST-C terminal from wheat germ); purchased Abnova (Taipei City, Taiwan); host or cells: wheat germ (cell-free)
Experimental: Surface Plasmon Resonance (SPR). Recombinant full-length TMEM97 (also called MAC30, from HEK293 cells) and GST-TMEM97 (108-176, recombinant GST-C terminal from wheat germ) proteins were purchased from OriGene (Rockville, Md.) and Abnova (Taipei City, Taiwan), respectively. Three peptides, TMEM97 (108-176), TMEM97 (108-143) and TMEM97 (144-176), were synthesized. All proteins and peptides were initially prepared in HBS buffer containing 10 mM HEPES, pH 7.4, 150 mM NaCl, and 0.05% surfactant P20. The CM5 sensor surface was first activated by 1-ethyl-3-(3-dimethylaminopropyl) carbodiimide hydrochloride (EDC)/N-hydroxy succinimide (NHS) mixture using a Biacore T200 or Biacore 8K instrument (GE Healthcare). […] Flow channels 1 and 3 were used as references.
The three synthesized peptides were diluted to 50 μg/mL in 10 mM sodium acetate at pH 4.0 and immobilized to flow channels 2, 3 and 4, respectively, on another sensor chip. The unmodified surfaces on a flow channel 1 were used as a reference control. Histatin solutions with a series of increasing concentrations (0.78-25 μM at 2-fold dilution) were applied to all four channels at a 30 μL/minute flow rate at 25° C. The data were double-referenced with reference channel and zero concentration responses, and reference subtracted sensorgrams were fitted with 1 to 1 Langmuir kinetic model using a Biacore T200 evaluation software V3.0 or Insight evaluation software. The equilibrium dissociation constants ([…]) were determined from two rate constants (KD=kd/ka).
To determine the region(s) of Hst1 that mediate binding to TMEM97, SPR testing was performed with various Hst1 fragments and either recombinant TMEM97 (GST-tagged, wheat-germ derived, C-terminal fragment TMEM97 (108-176)) or synthesized TMEM97 (TMEM97 (108-176), TMEM97 (108-143) and TMEM97 (144-176)).

[4] = tested on: NPC1 (I1061T mutant) homozygous patient fibroblasts; test: Cellular calcium in NPC1 (I1061T mutant) patient fibroblasts; type: cell-based, human
[5] = target: T2, full-length recombinant TMEM97 (HEK293 cells) (Homo sapiens, UniProt Q5BJF2); test: Surface plasmon resonance, immobilized full-length TMEM97; type: binding
T2 construct: Recombinant full-length TMEM97 (also called MAC30, from HEK293 cells); purchased OriGene (Rockville, Md.); host or cells: HEK293 cells

[6] = addition of either DTG or haloperidol

T1 sequence (Q5BJF2 108-176): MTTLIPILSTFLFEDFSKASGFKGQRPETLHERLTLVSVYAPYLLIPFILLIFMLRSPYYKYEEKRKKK
T2 sequence (Q5BJF2 whole entry): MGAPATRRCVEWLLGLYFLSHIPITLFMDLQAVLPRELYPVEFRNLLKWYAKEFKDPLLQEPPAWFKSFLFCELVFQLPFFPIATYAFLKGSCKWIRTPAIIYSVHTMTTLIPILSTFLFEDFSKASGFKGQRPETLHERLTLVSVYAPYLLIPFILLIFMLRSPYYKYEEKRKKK

## CC(C)C[C@H](NC(=O)[C@H](Cc1ccc(O)cc1)NC(=O)[C@H](CC(N)=O)NC(=O)[C@H](CO)NC(=O)CNC(=O)[C@H](Cc1ccc(O)cc1)NC(=O)[C@H](CC(=O)O)NC(=O)CNC(=O)[C@H](Cc1ccc(O)cc1)NC(=O)[C@H](Cc1ccccc1)NC(=O)[C@@H]1CCCN1C(=O)[C@H](Cc1ccccc1)NC(=O)[C@H](CCC(=O)O)NC(=O)[C@H](CCCNC(=N)N)NC(=O)[C@H](Cc1c[nH]cn1)NC(=O)[C@H](CO)NC(=O)[C@H](Cc1c[nH]cn1)NC(=O)[C@H](Cc1c[nH]cn1)NC(=O)[C@H](CCCCN)NC(=O)[C@H](CCC(=O)O)NC(=O)[C@H](Cc1c[nH]cn1)NC(=O)[C@H](Cc1ccccc1)NC(=O)[C@H](CCCCN)NC(=O)[C@H](CCCNC(=N)N)NC(=O)[C@H](CCCNC(=N)N)NC(=O)[C@H](Cc1ccc(O)cc1)NC(=O)CNC(=O)[C@H](Cc1c[nH]cn1)NC(=O)[C@H](Cc1c[nH]cn1)NC(=O)[C@H](CCCNC(=N)N)NC(=O)[C@H](CCCCN)NC(=O)[C@H](CCC(=O)O)NC(=O)[C@H](Cc1c[nH]cn1)NC(=O)[C@H](COP(=O)(O)O)NC(=O)[C@@H](N)CC(=O)O)C(=O)N[C@@H](Cc1ccc(O)cc1)C(=O)N[C@@H](CC(=O)O)C(=O)N[C@@H](CC(N)=O)C(=O)O [Hst1] (H-D[pS]HEKRHHGYRRKFHEKHHSHREFPFYGDYGSNYLYDN-OH; N-terminus and C-terminus assumed)
[1]
  BAK-induced loss of cell viability: abrogated
[2]
  potentiation of molar activity by cyclization: approximately 1000 fold
[3]
  LAMP1 lysosomal marker accumulation: normalized
  cholesterol accumulation (Filipin stained cells): reduction in cholesterol accumulation
NPC1 KD cells
  LC3 levels: dose-dependent reduction in LC3 levels
HCE cells; exogenously applied Hst1
  co-immunolocalization with TMEM97: significant overlap
  co-localization with endoplasmic reticulum stain: good co-localization
HCE cells; siRNA knock-down of TMEM97
  internalization and/or localization in TMEM97 KD cells: significantly disrupted internalization and/or localization
GST-TMEM97 (108-176)
  % Rmax: 43%
GST-TMEM97 (108-176); listed as Hst1(1-38)
  % Rmax: (% Rmax = 23%)
GST-TMEM97 (108-176); [6]
  effect of added DTG or haloperidol on Hst1 binding: did not affect
[4]
  cellular calcium levels: increased cellular calcium levels
[5]; SPR
  % Rmax: 32%
[5]; SPR, 25° C., 1 to 1 Langmuir kinetic model
  Kd: 1300 ± 300 nM
[5]; [6]
  effect of added DTG or haloperidol on Hst1 binding: did not affect
